Measured values taken from patent US9573899B2, “USP7 inhibitor compounds and methods of use” (Genentech, Inc., priority 2015, dated 2017).
Entries after “also recorded” stand apart in the source; their conditions may differ.

How the values were obtained:
[1] = tested on: p53 and p21 in p53 wild-type breast cancer and osteosarcoma cells; assay: Western blot of p53 and p21 in breast cancer, osteosarcoma and normal cells (FIG. 12A); format: cell-based; settings: 15 μM, <24 h, low serum; p53 wild-type breast cancer and osteosarcoma cells but not normal cells
Experimental: (§1) In 24-well plates, 0.10-0.15×10^6 (adherent) or 0.5×10^6 (suspension) cells were treated with 15 μM or 2.5 μM compounds, respectively, for 24 h in low serum prior to lysis for Western Blot analysis.

[2] = target: T1, USP47 (Homo sapiens, UniProt Q96K76); assay: Ub-Rho110 DUB assay, Table 2, USP47; format: biochemical
T1 sequence (Q96K76 1-1375): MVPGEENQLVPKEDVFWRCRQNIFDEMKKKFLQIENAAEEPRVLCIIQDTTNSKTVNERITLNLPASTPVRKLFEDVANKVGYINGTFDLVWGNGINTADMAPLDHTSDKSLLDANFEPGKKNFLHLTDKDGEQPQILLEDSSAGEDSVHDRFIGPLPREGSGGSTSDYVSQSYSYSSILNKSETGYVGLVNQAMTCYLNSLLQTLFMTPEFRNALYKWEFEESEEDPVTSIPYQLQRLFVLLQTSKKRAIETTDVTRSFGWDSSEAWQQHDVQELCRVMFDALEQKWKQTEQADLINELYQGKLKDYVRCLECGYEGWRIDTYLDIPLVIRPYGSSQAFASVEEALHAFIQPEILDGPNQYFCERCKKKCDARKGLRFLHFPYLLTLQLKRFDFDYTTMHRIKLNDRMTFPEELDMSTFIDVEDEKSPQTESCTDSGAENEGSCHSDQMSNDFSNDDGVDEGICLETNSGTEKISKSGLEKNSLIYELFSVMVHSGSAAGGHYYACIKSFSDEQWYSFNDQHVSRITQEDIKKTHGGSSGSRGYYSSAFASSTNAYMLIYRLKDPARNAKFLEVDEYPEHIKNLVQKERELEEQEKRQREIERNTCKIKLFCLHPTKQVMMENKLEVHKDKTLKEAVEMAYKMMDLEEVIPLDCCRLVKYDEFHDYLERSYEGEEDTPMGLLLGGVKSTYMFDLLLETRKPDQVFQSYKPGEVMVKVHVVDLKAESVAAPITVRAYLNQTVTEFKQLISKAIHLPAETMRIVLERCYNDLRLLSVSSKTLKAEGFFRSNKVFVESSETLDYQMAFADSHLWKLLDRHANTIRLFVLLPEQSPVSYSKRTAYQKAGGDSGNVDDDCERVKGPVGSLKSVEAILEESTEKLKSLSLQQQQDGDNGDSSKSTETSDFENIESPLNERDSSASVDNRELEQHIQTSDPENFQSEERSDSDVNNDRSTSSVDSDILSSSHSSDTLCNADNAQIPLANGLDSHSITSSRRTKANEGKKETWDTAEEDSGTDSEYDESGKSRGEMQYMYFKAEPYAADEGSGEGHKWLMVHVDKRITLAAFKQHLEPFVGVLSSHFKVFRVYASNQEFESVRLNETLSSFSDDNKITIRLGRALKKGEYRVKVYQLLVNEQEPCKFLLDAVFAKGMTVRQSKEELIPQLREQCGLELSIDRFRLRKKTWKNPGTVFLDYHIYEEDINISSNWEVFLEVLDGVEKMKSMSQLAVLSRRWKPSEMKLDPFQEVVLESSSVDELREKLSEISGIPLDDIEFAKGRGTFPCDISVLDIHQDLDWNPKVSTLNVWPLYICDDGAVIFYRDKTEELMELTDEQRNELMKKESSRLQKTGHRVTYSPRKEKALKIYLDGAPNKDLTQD

[3] = target: T2, endogenous USP7 (Homo sapiens, UniProt Q93009); assay: Activity-based profiling of deubiquitinases with HA-tagged ubiquitin probes, western blot (FIG. 5, 6); format: biochemical; settings: 15 μM, 293T cell lysate
T2 construct: endogenous in cells; host or cells: 293T cell lysate
Experimental: 293T cells at 80% confluency are harvested by rinsing the plate one time with 10 ml PBS followed by scraping. Cells are cleared by spinning them for 3 min at 350 g at 4° C. and the pellet is flash-frozen in liquid nitrogen and stored at −80° C. until lysis. Frozen cells are lysed by quickly re-thawing them in Buffer A (50 mM Tris-HCl pH 7.5, 250 mM Sucrose, 5 mM TCEP, 2 mM ATP, 50 μM phenylmethylsulfonyl fluoride (PMSF), 120 mM NaCl, 5 mM MgCl2) and the lysate is cleared by centrifugation by spinning at 18,000 g at 4° C. […] Subsequently, the 4 samples are all incubated with 6.6 μg/ml of either one of the following activity-based DUB probes (the same probe for each of the 4 samples): HA-tagged ubiquitin vinyl sulfone (Boston Biochem, Cambridge, Mass.), HA-tagged ubiquitin propargylamine (UbiQ Bio BV, Amsterdam, The Netherlands) or HA-tagged ubiquitin vinylmethyl ester (UbiQ Bio BV, Amsterdam, The Netherlands), 1200 rpm, at 25° C., for 1 hr. The reaction is terminated by adding a 20% SDS solution to a final concentration of 0.4% for at least 30 min at room temperature, rotating. Subsequently, the reacted lysate is diluted 10× with Buffer B (50 mM Tris-HCl pH 7.5, 150 mM NaCl, 5 mM EDTA, protease inhibitor cocktail EDTA-free (Roche, Mannheim, Germany), 50 μM PMSF, 0.5% NP-40). 60-100 μl slurry depending on input protein amount of pre-equilibrated anti-HA affinity matrix (Roche, Mannheim, Germany) are added and HA-tagged proteins are immunopurified with this matrix by rotating the samples over night at 4° C. The next day the beads are washed with the following buffers in this order: three times ice-cold Buffer B, one time ice-cold Buffer B NP-40 free, and three times ice-cold 15 mM TEAB pH 8.5. Spins between washes are performed at 2000 g and 4° C. […]

[4] = target: T3, USP7 (Homo sapiens, UniProt Q93009); assay: Ub-Rho110 DUB assay, Table 2, USP7; format: biochemical
T3 construct: USP7, full-length, native C-Terminus, 0.2 nM
Experimental: Biochemical USP7 assays using Ubiquitin-Rho110 as a substrate: The final assay conditions were as follows: The Reaction Buffer consisted of: 50 mM Tris (pH 7.5), 0.01% (v/v) Triton X-100, 2.5 mM Dithiothreitol, 0.1% (w/v) bovine gamma globulin (Sigma cat #G5009-25G); USP7, full-length, native C-Terminus, 0.2 nM; the substrate, Ubiquitin-Rho110 (Boston Biochem cat #U-555), 1 uM. Reactions were carried out for 1 hour at room temperature, in black 20 μL volume polystyrene ProxiPlate 384 F Plus® (PerkinElmer cat #6008260).
Test compounds, including a control USP7 inhibitor (Ub-aldehyde, Boston Biochem cat #U-201) were serially diluted in DMSO, in 384 well clear V-bottom polypropylene plates (Greiner cat #781280). Compounds in DMSO were diluted 10-fold into Reaction Buffer, to achieve 3-fold the final desired concentration. The substrate, Ubiquitin-Rho110 (Boston Biochem cat #U-555), was prepared at 3 μM (3-fold the final concentration) and 5 ul was dispensed into the reaction plate. 5 ul of the compounds (diluted in Reaction Buffer at 3-fold the final concentration) were transferred to the reaction plate. 5 ul of 0.6 nM USP7 (diluted in Reaction Buffer at 3-fold the final concentration) was transferred to the reaction plate to initiate the reaction. After 1 hour incubation at room temperature the reaction was quenched by the addition of 5 ul of 400 mM acetic acid. The enzymatic product was measured by quantifying the fluorescence signal of cleaved Rhodamine-110 using excitation at 485 nm and emission at 535 nm. When pre-incubation of USP7 with compounds was required, the order of addition of reagents was modified to pre-mix the compounds with USP7 (with a 1 hour incubation period), prior to the addition of the substrate and the initiation of the reaction period. Percentage inhibition values were calculated relative to a no enzyme control and a uninhibited enzyme control. Curve fitting and IC50 calculations were carried out using Genedata Screener software.

[5] = tested on: MCF-7 p53 WT breast cancer cells; assay: Incucyte cell proliferation and caspase activity, MCF-7 (FIG. 10, 17); format: cell-based; settings: MCF-7 p53 WT compared to MDA-MB157 p53 null cells; compared to 89
Experimental: 2,500-5,000 cells were seeded in 1-well of a 96-well plate (Corning; 3904). The following day, the media was changed from normal (10%) to low serum (0.5%) containing vehicle (DMSO) or compounds. 16-24 h later FBS was added to each well to bring serum levels back to normal (10%). Cells were then allowed to grow for 2 days. All treatments were done in triplicate. The day after cells were seeded, the media was changed to low serum media containing 2 μM CellEvent Caspase 3/7 reagent (Life Technologies; C10423) and compounds. The plates were placed in an IncuCyte (Essen Bioscience, Inc.) live cell imager and scanning was started 15-20 mins after. IncuCyte™ ZOOM facilitates live-cell monitoring via customized imaging protocols. Images were taken every 2 h for at least 3 days, using a 10× objective. Phase contrast was used to measure cell confluency/density while green fluorescence was used to measure caspase activity. The images were analyzed using IncuCyte software (Basic Analysis parameters) and a ratio of caspase activity to cell density was determined.

[6] = tested on: p53, p21, MDM2 and E6AP in RKO, RKO-E6, Vibo and SiHA cell lines; assay: Western blot in RKO, RKO-E6, Vibo and SiHA cells (FIG. 14A); format: cell-based
Experimental: as §1

T2 sequence (Q93009 whole entry): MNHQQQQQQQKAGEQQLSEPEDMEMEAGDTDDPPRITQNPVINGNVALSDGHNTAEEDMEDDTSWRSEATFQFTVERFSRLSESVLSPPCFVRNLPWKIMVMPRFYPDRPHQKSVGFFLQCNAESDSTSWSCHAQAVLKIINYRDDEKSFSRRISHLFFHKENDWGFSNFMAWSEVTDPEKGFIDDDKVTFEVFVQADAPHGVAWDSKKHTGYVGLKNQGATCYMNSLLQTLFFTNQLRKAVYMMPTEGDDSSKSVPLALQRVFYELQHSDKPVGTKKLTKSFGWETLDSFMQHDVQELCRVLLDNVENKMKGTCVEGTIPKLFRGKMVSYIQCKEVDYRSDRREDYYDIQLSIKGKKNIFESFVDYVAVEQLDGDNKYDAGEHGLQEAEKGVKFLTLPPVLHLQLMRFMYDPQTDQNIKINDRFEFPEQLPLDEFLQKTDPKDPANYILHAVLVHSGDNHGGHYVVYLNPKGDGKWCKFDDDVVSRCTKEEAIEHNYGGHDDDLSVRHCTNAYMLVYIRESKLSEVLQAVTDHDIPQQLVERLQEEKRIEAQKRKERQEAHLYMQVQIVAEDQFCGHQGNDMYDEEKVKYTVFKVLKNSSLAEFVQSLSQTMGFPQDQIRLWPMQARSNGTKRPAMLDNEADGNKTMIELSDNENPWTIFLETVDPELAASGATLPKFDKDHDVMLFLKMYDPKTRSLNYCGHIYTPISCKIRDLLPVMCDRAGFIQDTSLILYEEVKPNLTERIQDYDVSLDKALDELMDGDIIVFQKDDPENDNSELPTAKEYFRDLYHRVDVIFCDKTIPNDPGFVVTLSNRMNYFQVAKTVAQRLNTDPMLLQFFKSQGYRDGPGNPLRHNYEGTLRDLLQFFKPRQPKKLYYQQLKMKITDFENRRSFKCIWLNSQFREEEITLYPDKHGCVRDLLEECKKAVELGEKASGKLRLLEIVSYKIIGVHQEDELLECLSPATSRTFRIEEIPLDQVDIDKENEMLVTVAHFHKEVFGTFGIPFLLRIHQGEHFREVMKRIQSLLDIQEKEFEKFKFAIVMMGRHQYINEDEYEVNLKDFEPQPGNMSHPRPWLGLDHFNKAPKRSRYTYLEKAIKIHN
T3 sequence (Q93009 whole entry): as above

## CCc1c(-c2ccc3[nH]ncc3c2)cnc(N)c1-c1ccc(O)cc1 [Compound 88, 4-[2-amino-4-ethyl-5-(1H-indazol-5-yl)-3-pyridyl]phenol]
[1]
  p53 and p21 levels (western blot): increases p53 and p21 levels
[2]
  IC50: > 200000 nM
[3]; evaluated by western blotting
  selective antagonism of endogenous USP7 over other DUBs: selective DUB inhibition; also recorded: selectively antagonizes endogenous USP7 over other DUBs
[3]; western blot
  HA-probe-conjugated band corresponding to USP7: decreased
[4]
  IC50: 980 nM
[4]; conclusion from Table 2 (USP7, USP7 cat, USP47, USP5)
  selectivity of antagonism of USP7 catalytic activity over the DUBs evaluated: selective antagonists of USP7 catalytic activity
[5]
  cell viability (Incucyte proliferation and caspase activity): decreases cell viability
[6]
  effect on p53, p21, MDM2 and E6AP (western blot): stabilize p53, p21, and destabilize MDM2 and E6AP
